# From the pKa sets of Baltruschat and Czodrowski (2020)
# Settings: acidic group
row,SMILES,pKa
1,O=C([O-])CCS,10.3
2,O=Cc1ccncc1O,6.77
3,Cc1cc(O)c(C(C)C)cc1Nc1ccc([O-])cc1,10.8
4,Cc1nonc1NS(=O)(=O)c1ccc(N)cc1,4
5,CC(O)[C@@H]1C[NH2+][C@H](C(=O)[O-])[C@H]1CC(=O)O (stereo partly drawn),4.35
6,CC(C)(C)c1cc([N+](=O)[O-])cc(C(C)(C)C)c1O,6.92
7,O=[PH](O)C([NH2+]Cc1cc[nH+]cc1)c1ccccc1O (stereo not drawn),2.35
8,Nc1nc[nH]n1,10.7
9,CC(C)c1nnn[nH]1,5.55
10,OC(O)c1ccccc1,12.4
11,O=[N+]([O-])c1cccc(S(=O)O)c1,1.21
12,COc1cccc(O)c1,9.51
13,CC(=O)C1CCCCC1=O (stereo not drawn),10.2
14,NNC(=O)c1ccccn1,11.8
15,Cc1ncc(CO)c(C)c1O,9.98
16,CC(C)=CCC1C(=O)C(CC=C(C)C)(CC=C(C)C)C(O)(C(=O)[O-])C1=O (stereo not drawn),9.7
17,Nc1nc(O)cc[nH+]1,4.01
18,Cc1ccc(O)c(Cc2cc(C)cc([N+](=O)[O-])c2[O-])c1,11.7
19,CCCCOc1ccc(C(=O)O)cc1,4.48
20,O=C(/C(=N\O)c1ccccc1)c1ccccc1,10
21,Cc1ncsc1C(=O)O,3.54
22,Cc1ccccc1/C=C/C(=O)O,4.5
23,O=C(CC(=O)c1ccccc1)Nc1cccc([N+](=O)[O-])c1,9.54
24,CC(=O)c1ccc(NS(=O)(=O)c2ccccc2)cc1,6.94

row,SMILES,pKa
1,C[NH+](C)CCCCNC(=O)/C=N/O,8.81
2,N#Cc1ccccc1O,7.32
3,Cc1ccc(O)cc1C(=O)O,3.92
4,COc1ccccc1C(=O)NO,8.9
5,N/N=C(\N)c1ncnc2nc[nH]c12,10
6,COc1cc(C[NH+](C)C)c(O)c(C[NH+](C)C)c1,6.33
7,CC(=O)C(Cc1ccc([N+](=O)[O-])cc1)C(C)=O,9.54
8,O=C(O)c1c[nH]c2ccccc12,5.27
9,CC(=N\O)/C(CO)=N/[O-],12.1
10,Cc1cc(O)n(-c2ccccc2)n1,11.3
11,COc1ccc2c(c1)nnn2O,5.07
12,C[N+](C)(C)CCCc1cccc(O)c1,9.64
13,CC1(C)NC(=O)NC1=O,9.19
14,Cc1ccc(S(=O)(=O)NCCC(N)=[NH2+])cc1,9.49
15,CN(C)/C=N/c1ccccc1O,11
16,Cc1ccc(O)cc1Cc1cc([N+](=O)[O-])ccc1O,7.03
17,Cc1ncc2c(c1O)C(=O)OC2,7.05
18,c1cn[nH]c1,14.2
19,CC(=O)C(C=O)C(C)=O,4.6
20,CN(C)c1ccc(NC(=O)/C=N/O)cc1,9.26
21,Cc1ccc(C)c(C(=O)C(=O)O)c1,1.45
22,CN1CC[C@]23c4c5ccc(O)c4O[C@H]2[C@@H](O)C=C[C@H]3[C@H]1[C@H]5O,9.06
23,O=[N+]([O-])c1ccc2c(c1)C([P+](c1ccccc1)(c1ccccc1)c1ccccc1)c1ccccc1-2.[Br-] (stereo not drawn),5.36
24,OCc1nc2cc(Cl)ccc2[nH]1,11.5

row,SMILES,pKa
1,Cc1ccc(C(=O)O)cc1[N+](=O)[O-],3.62
2,Cc1ccc(C[n+]2ccc(C(=O)Cc3ccccc3)cc2)cc1,8.91
3,Cc1csc(-c2cccc(NS(=O)(=O)c3ccc(N)cc3)c2)n1,9.2
4,c1nnn[nH]1,4.84
5,O=C(Cc1ccccc1)c1cc[n+](Cc2ccc([N+](=O)[O-])cc2)cc1,8.68
6,O=[N+]([O-])c1ccc(NS(=O)(=O)c2ccccc2)cc1,6.63
7,S=C(NC(=S)c1ccccc1)Nc1ccccc1,10.7
8,Cc1c[nH]c(C(=O)O)c1,4.6
9,CC(C)CN[N+](=O)[O-],6.38
10,O=C1CCc2ccc([N+](=O)[O-])cc2C1,11.8
11,O=C(O)c1cccnn1,3
12,O=C(c1ccccc1)c1ccc([O-])[n+](O)c1,5.13
13,O=C(O)c1ccc(Cl)s1,3.41
14,CC(C)C[NH2+]CC(=O)O,2.35
15,CCCCCOc1ccc(C(=O)O)cc1,4.49
16,[O-][n+]1ccc(NO)c2ccccc21,9.52
17,COP(=O)(O)NS(C)(=O)=O,1.16
18,CC(C)(C)C(=O)C(=O)O,2.3
19,CN1C(=O)NCc2[nH]cnc21,11.1
20,Nc1ncc2[nH]c(-c3ccccc3)nc2n1,9.2
21,O=C1C(=O)C(c2ccccc2)C1=O,0.37
22,O=C1NC(=O)/C(=C/c2ccccc2)N1,8.6
23,C=C(C)/C(C)=C(\C)O,12

# Same assay, conditions: basic group
row,SMILES,pKa
1,NNC(=O)[C@@H](N)Cc1ccccc1,7.06
2,O=C([O-])C(NCC[NH2+]C(C(=O)[O-])c1ccccc1O)c1ccccc1O (stereo not drawn),6.32
3,COc1ccc(-c2ncc(-c3ccc(C)cc3)o2)cc1,1.34
4,CNC(=O)C1CCCCN1 (stereo not drawn),8.8
5,CCOc1ccc2[nH]c(C(C)C)nc2c1,6.17
6,CCCNCCN,10.3
7,O=[N+]([O-])c1cnc([O-])[nH+]c1[O-],5.42
8,Cc1cccc(-n2nnnc2N)c1,1.08
9,O=Cc1ccncc1O,4.05
10,Nc1ncnc2c1nnn2Cc1ccco1,2.6
11,[S-]c1cccc2cccnc12,8.29
12,Cc1ccc2c(c1)sc(-c1ccc(N(C)C)cc1)[n+]2C,2.69
13,CC1CNCCN1 (stereo not drawn),9.9
14,CC(=O)c1cccnc1,3.32
15,C=CCN(CC=C)CCCNC(=O)/C=N/[O-],9.34
16,c1cc(-c2cc[nH+]cc2)ccn1,3.17
17,Cc1ccc(N)cc1C[NH3+],4.67
18,CC(O)CNCC[NH3+] (stereo not drawn),6.94
19,c1ccc2c(c1)cnc1ccccc12,4.58
20,Nc1nc[nH]n1,4.3
21,CC(O)CNCC(C)O (stereo not drawn),8.88
22,CNc1ncnc2scnc12,2.84
23,Cc1ccn(-c2ccccn2)n1,1.36
24,CCC(O)CN(CC)CC(O)CC (stereo not drawn),9.2
25,NNC(=O)c1ccccn1,2.86
26,NC(=S)C[NH3+],-8.39

row,SMILES,pKa
1,Nc1nc([O-])c2ncn([C@@H]3C=C[C@H](CO)C3)c2n1,9.68
2,Cc1ncc(CO)c(C)c1O,5.4
3,CC(=O)Nc1ccc2cc3ccccc3nc2c1,5.6
4,CC(C)(C)c1cccnc1,5.82
5,C[C@H](O)[C@H]1CC[C@H]2[C@@H]3CC[C@H]4C[C@H](N)CC[C@]4(C)[C@H]3CC[C@]12C,9.28
6,C1CN2CC[C@@H]3OC[C@H]1[C@@H]32,9.44
7,CCc1cnnc(C)c1,4.17
8,COc1cc(C[NH3+])c(C)cc1N,4.26
9,Nc1cccc2cc([N+](=O)[O-])ccc12,3.15
10,CC(C)(N)CO,9.74
11,Cn1c2c(s/c1=N\N)CCCC2,8.2
12,NC(=O)C(N)Cc1c[nH]c2ccccc12 (stereo not drawn),7.55
13,CC1CC[C@H](O)[C@@H](N)C1 (stereo partly drawn),9.5
14,CCCCCCN(CC(O)CC)CC(O)CC (stereo not drawn),8.6
15,Cn1ncc2c(NC(C)(C)CC(C)(C)C)ncnc21,3.96
16,COc1ncnc2nccnc12,1.04
17,CCN(CC)c1nc(N)nc(N)n1,5.61
18,Nc1ccccn1,6.95
19,C=CCN(C)CCCNC(=O)/C=N/[O-],9.5
20,c1ccc(CNC(CC2CCCCC2)CC2CCCCC2)cc1,7.7
21,O=[N+]([O-])c1ccc2[nH]c(CO)nc2c1,2.21
22,O=C(CN1CCCCC1)Nc1ccccc1,7.85
23,Cc1cc(O)n(-c2ccccc2)n1,1.07
24,Nc1ccc(-c2nc3ccccc3s2)cc1,3
25,C1CSCCN1,9.05
26,CCNCCNCC,10.5

row,SMILES,pKa
1,CN(C)c1ccc(N=O)cc1,4.54
2,C[C@@H]1CCCC[C@@H]1N,10.6
3,Cc1cccc(C)c1/C(=N/CCCN(C)C)c1ccccc1,8.7
4,CCCCN/C(C)=N/N(C)C,10.4
5,NOCc1ccccc1,4.34
6,CN(C)/C=N/c1ccccc1O,7.41
7,CCN(CC)CCCCNc1ccnc2ccccc12,10.2
8,c1cn[nH]c1,2.61
9,CC(C)C(C(C)C)N(C)C,10.1
10,c1nc(Cc2c[nH]c(Cc3nc(Cc4cnc[nH]4)c[nH]3)n2)c[nH]1,7.49
11,O=[N+]([O-])c1ccc(-c2cnc(-c3ccccc3)o2)cc1,0.35
12,NC(=O)c1cncc2ccccc12,3.8
13,C[C@H]1C[NH2+][C@@H](C)CN1,5.23
14,CN(C)c1cccc2cccc(N(C)C)c12,12.1
15,COc1ccc(CN2CC(O[Si](C)(C)C)C2)cc1,8.17
16,CN(C)c1ccc(NC(=O)/C=N/O)cc1,4.94
17,CN(CC[NH3+])CC[NH+](C)C,3.19
18,CN1CC[C@]23c4c5ccc(O)c4O[C@H]2[C@@H](O)C=C[C@H]3[C@H]1[C@H]5O,7.13
19,[O-]c1ccncc1,11.1
20,OCc1nc2cc(Cl)ccc2[nH]1,4.63
21,Cc1ccncc1,6.15
22,N/C(CCNc1ccccc1)=N\O,5.35
23,Nc1cccc(-c2nc3ccccc3s2)c1,3.4
24,[NH3+]/N=C/c1ncnc2nc[nH]c12,2.8
25,N[C@H]1CCCC[C@@H]1N,9.75
26,CCCn1cnc2ccccc21,5.46

row,SMILES,pKa
1,CN(CC[NH+](C)C)CC[NH+](C)C,2.57
2,CCN(CC)CC(=O)NC1c2ccccc2-c2ccccc21,7.98
3,c1nc(Cc2c[nH]c(Cc3nc(Cc4cnc[nH]4)c[nH]3)[nH+]2)c[nH]1,6.66
4,Clc1ccc(CNc2ncnc3[nH]ncc23)cc1,3.96
5,CCCCCC(C)N (stereo not drawn),11.2
6,O=C1[C@H]2C[C@H](CN3CCCC=C23)[C@@H]2CCCCN12,9.7
7,CCOC(=O)Cc1ccccn1,4.25
8,CCCC(=O)OCCN(C)C,8.31
9,O=[N+]([O-])c1ccc(C2NCCS2)cc1 (stereo not drawn),4.55
10,CCN(CC)CC(=O)Nc1ccc(C)cc1,8.13
11,c1ccc(-c2ccn[nH]2)nc1,4.46
12,Nc1ncc2[nH]c(-c3ccccc3)nc2n1,3.98
13,CCN(C)CCOCC[NH+](CC)CC,8.46
14,COc1ccc([N+](=O)[O-])c2cccnc12,3.55
15,CNC(C)(C)C(=O)[O-],10.8
16,Nc1ccc(Cl)cc1,3.96
17,COc1ccc(/N=C/N(C)C)cc1,9.35
18,Nc1ccc2[nH]c(CCc3ccccc3)nc2c1,7.2
19,CC1=Nc2ccccc2N=C(C)C1,3.85
20,COc1ccc(C(O)CNC(C)CC2=C(C)C(C)(C)CC2)cc1 (stereo not drawn),8.79
21,CCC[NH2+]CCN,7.54
22,O=[PH]([O-])C([NH2+]Cc1ccccn1)c1ccccc1O (stereo not drawn),3.25
23,COc1c(Br)cccc1C(=O)N[C@@H]1C[C@H]2CC[C@@H](C1)N2Cc1ccccc1,8.73
24,C/N=C1/CCCCC1C (stereo not drawn),9.47
